# Measured values: PubChem BioAssay (NCI)
#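 How tested: cells in 96-well plates exposed to compound for 48 hours at five concentrations. The concentration for full growth arrest is given as TGI.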
# How the values were obtained:
# Test in all cases: NCI-60 cell line screen, 48 h
# MCF7 breast = tested on: MCF7 breast
# MDA-N = tested on: MDA-N
# HOP-92 NSCLC = tested on: HOP-92 NSCLC
# HCC-2998 colon = tested on: HCC-2998 colon
# 786-0 renal = tested on: 786-0 renal
# U251 CNS = tested on: U251 CNS
# CCRF-CEM leukemia = tested on: CCRF-CEM leukemia
# OVCAR-4 ovarian = tested on: OVCAR-4 ovarian
# SN12C renal = tested on: SN12C renal
# IGROV1 ovarian = tested on: IGROV1 ovarian
# SW-620 colon = tested on: SW-620 colon
# LOX IMVI melanoma = tested on: LOX IMVI melanoma
# DU-145 prostate = tested on: DU-145 prostate
# UACC-62 melanoma = tested on: UACC-62 melanoma
# HS 578T breast = tested on: HS 578T breast
# A498 renal = tested on: A498 renal
# K-562 leukemia = tested on: K-562 leukemia
# SK-MEL-5 melanoma = tested on: SK-MEL-5 melanoma
# UO-31 renal = tested on: UO-31 renal
# A549 NSCLC = tested on: A549 NSCLC
# RPMI-8226 leukemia = tested on: RPMI-8226 leukemia
# NCI/ADR-RES ovarian = tested on: NCI/ADR-RES ovarian
# OVCAR-3 ovarian = tested on: OVCAR-3 ovarian
# HT29 colon = tested on: HT29 colon
# OVCAR-5 ovarian = tested on: OVCAR-5 ovarian
# SF-295 CNS = tested on: SF-295 CNS
# NCI-H226 lung = tested on: NCI-H226 lung
# UACC-257 melanoma = tested on: UACC-257 melanoma
# TK-10 renal = tested on: TK-10 renal
# NCI-H522 lung = tested on: NCI-H522 lung
# SR leukemia = tested on: SR leukemia
# HCT-15 colon = tested on: HCT-15 colon
# EKVX NSCLC = tested on: EKVX NSCLC
# M14 melanoma = tested on: M14 melanoma
# MOLT-4 leukemia = tested on: MOLT-4 leukemia
# RXF 393 renal = tested on: RXF 393 renal
# SK-MEL-28 melanoma = tested on: SK-MEL-28 melanoma
# NCI-H23 lung = tested on: NCI-H23 lung
# PC-3 prostate = tested on: PC-3 prostate
# HCT-116 colon = tested on: HCT-116 colon
# SF-539 CNS = tested on: SF-539 CNS
# CAKI-1 renal = tested on: CAKI-1 renal
# SNB-19 CNS = tested on: SNB-19 CNS
# BT-549 breast = tested on: BT-549 breast
# HOP-62 NSCLC = tested on: HOP-62 NSCLC
# COLO 205 colon = tested on: COLO 205 colon
# SF-268 CNS = tested on: SF-268 CNS
# T-47D breast = tested on: T-47D breast
# OVCAR-8 ovarian = tested on: OVCAR-8 ovarian
# HL-60(TB) leukemia = tested on: HL-60(TB) leukemia
# MDA-MB-435 = tested on: MDA-MB-435
# NCI-H460 lung = tested on: NCI-H460 lung
# SK-MEL-2 melanoma = tested on: SK-MEL-2 melanoma
# SNB-75 CNS = tested on: SNB-75 CNS
# SK-OV-3 ovarian = tested on: SK-OV-3 ovarian
# KM12 colon = tested on: KM12 colon
# MALME-3M melanoma = tested on: MALME-3M melanoma
# ACHN renal = tested on: ACHN renal
# MDA-MB-231 breast = tested on: MDA-MB-231 breast
# LXFL 529 NSCLC = tested on: LXFL 529 NSCLC
# DMS 273 small cell lung = tested on: DMS 273 small cell lung
# KM20L2 colon = tested on: KM20L2 colon
# DLD-1 colon = tested on: DLD-1 colon
smiles,measurement,setting,value
Oc1cccc2cc(Br)cnc12,TGI,MCF7 breast,> 100 µM
same,TGI,MDA-N,> 100 µM
same,TGI,HOP-92 NSCLC,74.2 µM
same,TGI,HCC-2998 colon,96.9 µM
same,TGI,786-0 renal,> 100 µM
same,TGI,U251 CNS,> 100 µM
same,TGI,CCRF-CEM leukemia,7.81 µM
same,TGI,OVCAR-4 ovarian,> 30.4 µM
same,TGI,SN12C renal,> 100 µM
same,TGI,IGROV1 ovarian,51.5 µM
same,TGI,SW-620 colon,> 100 µM
same,TGI,LOX IMVI melanoma,> 39.7 µM
same,TGI,DU-145 prostate,> 100 µM
same,TGI,UACC-62 melanoma,29.2 µM
same,TGI,HS 578T breast,> 92.6 µM
same,TGI,A498 renal,> 85 µM
same,TGI,K-562 leukemia,16.1 µM
same,TGI,SK-MEL-5 melanoma,48.1 µM
same,TGI,UO-31 renal,> 76.1 µM
same,TGI,A549 NSCLC,> 100 µM
same,TGI,RPMI-8226 leukemia,> 31.4 µM
same,TGI,NCI/ADR-RES ovarian,20.6 µM
same,TGI,OVCAR-3 ovarian,> 26.3 µM
same,TGI,HT29 colon,> 73.1 µM
same,TGI,OVCAR-5 ovarian,> 100 µM
same,TGI,SF-295 CNS,> 100 µM
same,TGI,NCI-H226 lung,> 100 µM
same,TGI,UACC-257 melanoma,27.3 µM
same,TGI,TK-10 renal,> 100 µM
same,TGI,NCI-H522 lung,9.18 µM
same,TGI,SR leukemia,> 52 µM
same,TGI,HCT-15 colon,> 100 µM
same,TGI,EKVX NSCLC,99 µM
same,TGI,M14 melanoma,51.8 µM
same,TGI,MOLT-4 leukemia,14.9 µM
same,TGI,RXF 393 renal,88.2 µM
same,TGI,SK-MEL-28 melanoma,> 100 µM
same,TGI,NCI-H23 lung,> 72.8 µM
same,TGI,PC-3 prostate,> 100 µM
same,TGI,HCT-116 colon,> 42.7 µM
same,TGI,SF-539 CNS,57.3 µM
same,TGI,CAKI-1 renal,> 100 µM
same,TGI,SNB-19 CNS,> 100 µM
same,TGI,BT-549 breast,> 100 µM
same,TGI,HOP-62 NSCLC,> 100 µM
same,TGI,COLO 205 colon,97.5 µM
same,TGI,SF-268 CNS,> 33.9 µM
same,TGI,T-47D breast,> 25.7 µM
same,TGI,OVCAR-8 ovarian,> 100 µM
same,TGI,HL-60(TB) leukemia,4 µM
same,TGI,MDA-MB-435,> 100 µM
same,TGI,NCI-H460 lung,> 70.8 µM
same,TGI,SK-MEL-2 melanoma,> 100 µM
same,TGI,SNB-75 CNS,> 83.2 µM
same,TGI,SK-OV-3 ovarian,> 100 µM
same,TGI,KM12 colon,> 100 µM
same,TGI,MALME-3M melanoma,> 100 µM
same,TGI,ACHN renal,> 69.2 µM
same,TGI,MDA-MB-231 breast,> 47.1 µM
O=S(=O)([O-])[O-].[Cl-].[NH2-].[NH2-].[NH2-].[NH2-].[Ru+3].c1ccncc1,TGI,HOP-92 NSCLC,> 100 µM
same,TGI,HCC-2998 colon,> 100 µM
same,TGI,786-0 renal,> 100 µM
same,TGI,U251 CNS,> 100 µM
same,TGI,CCRF-CEM leukemia,> 100 µM
same,TGI,OVCAR-4 ovarian,> 100 µM
same,TGI,SN12C renal,> 100 µM
same,TGI,IGROV1 ovarian,> 100 µM
same,TGI,SW-620 colon,> 100 µM
same,TGI,LOX IMVI melanoma,> 100 µM
same,TGI,UACC-62 melanoma,> 100 µM
same,TGI,A498 renal,> 100 µM
same,TGI,K-562 leukemia,> 100 µM
same,TGI,SK-MEL-5 melanoma,> 100 µM
same,TGI,UO-31 renal,> 100 µM
same,TGI,A549 NSCLC,> 100 µM
same,TGI,RPMI-8226 leukemia,> 100 µM
same,TGI,OVCAR-3 ovarian,> 100 µM
same,TGI,HT29 colon,> 100 µM
same,TGI,OVCAR-5 ovarian,> 100 µM
same,TGI,SF-295 CNS,> 100 µM
same,TGI,NCI-H226 lung,> 100 µM
same,TGI,LXFL 529 NSCLC,> 100 µM
same,TGI,UACC-257 melanoma,> 100 µM
same,TGI,TK-10 renal,> 100 µM
same,TGI,NCI-H522 lung,> 100 µM
same,TGI,SR leukemia,> 100 µM
same,TGI,DMS 273 small cell lung,> 100 µM
same,TGI,HCT-15 colon,> 100 µM
same,TGI,EKVX NSCLC,> 100 µM
same,TGI,M14 melanoma,> 100 µM
same,TGI,MOLT-4 leukemia,> 100 µM
same,TGI,SK-MEL-28 melanoma,> 100 µM
same,TGI,KM20L2 colon,> 100 µM
same,TGI,NCI-H23 lung,> 100 µM
same,TGI,HCT-116 colon,> 100 µM
same,TGI,SF-539 CNS,> 100 µM
same,TGI,CAKI-1 renal,> 100 µM
same,TGI,HOP-62 NSCLC,> 100 µM
same,TGI,DLD-1 colon,> 100 µM
same,TGI,COLO 205 colon,> 100 µM
same,TGI,SF-268 CNS,> 100 µM
same,TGI,OVCAR-8 ovarian,> 100 µM
same,TGI,HL-60(TB) leukemia,> 100 µM
same,TGI,NCI-H460 lung,> 100 µM
same,TGI,SK-MEL-2 melanoma,> 100 µM
same,TGI,SNB-75 CNS,> 100 µM
same,TGI,SK-OV-3 ovarian,> 100 µM
same,TGI,KM12 colon,> 100 µM
same,TGI,MALME-3M melanoma,> 100 µM
same,TGI,ACHN renal,> 100 µM
CC(C)C(C/C=C1/CC(CO)(COC(=O)c2ccccc2)OC1=O)C(C)C (stereo unspecified),TGI,MCF7 breast,39 µM
same,TGI,MDA-N,31.2 µM
same,TGI,HOP-92 NSCLC,35.8 µM
same,TGI,HCC-2998 colon,40.8 µM
same,TGI,786-0 renal,23.2 µM
same,TGI,U251 CNS,36.1 µM
same,TGI,CCRF-CEM leukemia,43.5 µM
same,TGI,OVCAR-4 ovarian,30 µM
same,TGI,SN12C renal,29 µM
same,TGI,IGROV1 ovarian,38.2 µM
same,TGI,SW-620 colon,31.9 µM
same,TGI,LOX IMVI melanoma,69.6 µM
same,TGI,UACC-62 melanoma,67.1 µM
same,TGI,HS 578T breast,24.3 µM
same,TGI,A498 renal,39.7 µM
same,TGI,K-562 leukemia,48 µM
same,TGI,SK-MEL-5 melanoma,21.3 µM
same,TGI,UO-31 renal,31.5 µM
same,TGI,A549 NSCLC,26.5 µM
same,TGI,NCI/ADR-RES ovarian,38.8 µM
same,TGI,OVCAR-3 ovarian,32.2 µM
same,TGI,HT29 colon,36.4 µM
same,TGI,OVCAR-5 ovarian,31.2 µM
same,TGI,SF-295 CNS,25.7 µM
same,TGI,NCI-H226 lung,32.4 µM
same,TGI,UACC-257 melanoma,62.4 µM
same,TGI,TK-10 renal,32.3 µM
same,TGI,NCI-H522 lung,35 µM
same,TGI,SR leukemia,> 100 µM
same,TGI,HCT-15 colon,36.9 µM
same,TGI,EKVX NSCLC,35.9 µM
same,TGI,M14 melanoma,32.2 µM
same,TGI,MOLT-4 leukemia,47 µM
same,TGI,RXF 393 renal,31.2 µM
same,TGI,SK-MEL-28 melanoma,27.8 µM
same,TGI,NCI-H23 lung,34.7 µM
same,TGI,PC-3 prostate,28.1 µM
same,TGI,HCT-116 colon,29.7 µM
same,TGI,SF-539 CNS,16.1 µM
same,TGI,CAKI-1 renal,27.8 µM
same,TGI,SNB-19 CNS,31.1 µM
same,TGI,BT-549 breast,33.2 µM
same,TGI,HOP-62 NSCLC,22.4 µM
same,TGI,COLO 205 colon,17.4 µM
same,TGI,SF-268 CNS,31.8 µM
same,TGI,T-47D breast,31.2 µM
same,TGI,OVCAR-8 ovarian,48.5 µM
same,TGI,MDA-MB-435,95.5 µM
same,TGI,NCI-H460 lung,45.7 µM
same,TGI,SK-MEL-2 melanoma,> 100 µM
same,TGI,SNB-75 CNS,20.3 µM
same,TGI,SK-OV-3 ovarian,> 100 µM
same,TGI,KM12 colon,31.7 µM
same,TGI,MALME-3M melanoma,25.1 µM
same,TGI,ACHN renal,28.2 µM
same,TGI,MDA-MB-231 breast,32.8 µM
